Source: the supplement of paper PMC10307832

What was measured:
Assay in all cases: relative viability (nuclei count vs DMSO), 5 days (fraction); higher = more cells survive
AZ3146 + OSI-027 = compound: CN1CCC(CC1)OC2=CC(=C(C=C2)NC3=NC=C4C(=N3)N(C(=O)N4C)C5CCCC5)OC [AZ3146] + COc1cccc2cc(-c3nc([C@H]4CC[C@H](C(=O)O)CC4)n4ncnc(N)c34)[nH]c12 [OSI-027] (partner 0.5 µM)
Method in brief: (§1)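 Medians of duplicate plates are given as relative viability. That measure is the nuclei count in treated wells divided by the count in vehicle wells. Counts were taken on 4× images of lung cancer cell lines in 1536-well plates, 5 days after pin-tool dosing the day after seeding with one drug alone or a fixed anchor-drug dose plus five library-drug doses (not always all listed) in √10 steps.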

AZ3146 + Vorinostat = compound: CN1CCC(CC1)OC2=CC(=C(C=C2)NC3=NC=C4C(=N3)N(C(=O)N4C)C5CCCC5)OC [AZ3146] + O=C(CCCCCCC(=O)Nc1ccccc1)NO [Vorinostat] (partner 1 µM)
Method in brief: as §1

AZ3146 + Linsitinib = compound: CN1CCC(CC1)OC2=CC(=C(C=C2)NC3=NC=C4C(=N3)N(C(=O)N4C)C5CCCC5)OC [AZ3146] + C[C@]1(O)C[C@@H](c2nc(-c3ccc4ccc(-c5ccccc5)nc4c3)c3c(N)nccn32)C1 [Linsitinib] (partner 1 µM)
Method in brief: as §1

AZ3146 + Alpelisib = compound: CN1CCC(CC1)OC2=CC(=C(C=C2)NC3=NC=C4C(=N3)N(C(=O)N4C)C5CCCC5)OC [AZ3146] + Cc1nc(NC(=O)N2CCC[C@H]2C(N)=O)sc1-c1ccnc(C(C)(C)C(F)(F)F)c1 [Alpelisib] (partner 2 µM)
Method in brief: as §1

Cell Line	relative viability (AZ3146 + OSI-027; first compound 0.08 µM)	relative viability (AZ3146 + OSI-027; first compound 0.253 µM)	relative viability (AZ3146 + OSI-027; first compound 0.8 µM)	relative viability (AZ3146 + OSI-027; first compound 2.53 µM)	relative viability (AZ3146 + OSI-027; first compound 8 µM)	relative viability (AZ3146 + Vorinostat; first compound 0.08 µM)	relative viability (AZ3146 + Vorinostat; first compound 0.253 µM)	relative viability (AZ3146 + Vorinostat; first compound 0.8 µM)	relative viability (AZ3146 + Vorinostat; first compound 2.53 µM)	relative viability (AZ3146 + Vorinostat; first compound 8 µM)	relative viability (AZ3146 + Linsitinib; first compound 0.08 µM)	relative viability (AZ3146 + Linsitinib; first compound 0.253 µM)	relative viability (AZ3146 + Linsitinib; first compound 0.8 µM)	relative viability (AZ3146 + Linsitinib; first compound 2.53 µM)	relative viability (AZ3146 + Linsitinib; first compound 8 µM)	relative viability (AZ3146 + Alpelisib; first compound 0.08 µM)	relative viability (AZ3146 + Alpelisib; first compound 0.253 µM)	relative viability (AZ3146 + Alpelisib; first compound 0.8 µM)	relative viability (AZ3146 + Alpelisib; first compound 2.53 µM)	relative viability (AZ3146 + Alpelisib; first compound 8 µM)
NCI-H1755	0.589	0.737	0.575	0.72	0.802	0.71	0.804	0.599	0.789	0.765	0.885	1.02	0.932	1.01	0.972	0.919	0.989	0.848	0.953	0.917
NCI-H520	0.234	0.255	0.234	0.292	0.233	0.588	0.7	0.685	0.783	0.537	0.843	0.896	1.05	1.12	0.786	0.689	0.943	0.791	0.834	1.04
LOU-NH91	0.726	0.61	0.7	0.702	0.745	0.866	0.837	0.968	1	0.832	0.954	0.84	1.06	0.914	0.895	0.662	0.663	0.681	0.711	0.672
LU99A	0.28	0.306	0.309	0.317	0.228		0.507	0.503	0.514	0.481	0.419	0.556	0.589	0.502	0.557	0.494	0.564	0.515	0.606	0.438
PC-14	0.805	0.784	0.741	0.853	0.185	0.538	0.745	0.546	0.359	0.0815	1.05	0.995	0.98	1.03	0.941	0.897	0.976	0.979	1.07	0.916
LC-2-ad	0.694	0.781	0.801	0.92	0.819	0.629	0.703	0.69	0.694	0.603	0.782	0.886	0.775	0.845	0.863	0.793	0.797	0.866	0.956	0.792
NCI-H2126	0.6	0.706	0.537	0.784	0.649	0.504	0.743	0.709	0.835	0.66	0.687	0.667	0.761	0.739	0.696	0.683	0.705	0.757	0.724	0.731
